Reference: patent US12544378B2, “Solid pharmaceutical formulation of PARP inhibitors and use thereof” (IMPACT THERAPEUTICS (SHANGHAI), INC, priority 2015, dated 2026)

Tests used:
[1] = Effects of vehicle formulas on drug absorption, mouse pharmacokinetics (PK) method (Example 8); assay type: in vivo; details: ICR mice, gavage, solution in DMSO:10% HP-β-CD PBS=1:9
Protocol: Measurement of the Effects of 5-fluoro-1-(4-fluoro-3-(4-(pyrimidin-2-yl)piperazine-1-carbonyl)benzyl)quinazoline-2,4(1H,3H)-dione Vehicle Formulas on the Drug Absorption Using a Mouse Pharmacokinetics (PK) Method
5-Fluoro-1-(4-fluoro-3-(4-(pyrimidin-2-yl)piperazine-1-carbonyl)benzyl)quinazoline-2,4(1H,3H)-dione in different vehicle formulas at the same dosage was administered to ICR mice by gavage. The blood was sampled at 30 min after gavage, the blood concentrations were measured by LCMS method, and the effects on the drug absorption of different vehicle formulas was made a comparison. The blood concentrations were shown as the table below: […]

[2] = Absorption of amorphous solid dispersion HP-55 (1:3), rat pharmacokinetics (PK) method (Example 12); assay type: in vivo; details: whole blood, Wistar rats, IV, 1 mg/kg, solution in DMSO:10% HP-β-CD PBS (1:9)
Protocol: Measurement of the Absorption Ratio of the Amorphous Solid Dispersions of 5-fluoro-1-(4-fluoro-3-(4-(pyrimidin-2-yl)piperazine-1-carbonyl)benzyl)quinazoline-2,4(1H,3H)-dione:HP-55 (1:3) Using a Rat Pharmacokinetics (PK) Method
(§1) The solution of 5-fluoro-1-(4-fluoro-3-(4-(pyrimidin-2-yl)piperazine-1-carbonyl)benzyl)quinazoline-2,4(1H,3H)-dione in DMSO:10% HP-β-CD PBS (1:9) was administered to Wistar rats at 1 mg/kg by IV. And the homogeneous suspension of the amorphous solid dispersion of 5-fluoro-1-(4-fluoro-3-(4-(pyrimidin-2-yl)piperazine-1-carbonyl)benzyl)quinazoline-2,4(1H,3H)-dione:HP-55 (1:3) in 0.5% MC/water was administered to Wistar rats at 10 mg/kg by IG. The blood was sampled at a certain time after administration. The blood concentrations were measured by LCMS method, and the oral absorption was measured by a rat pharmacokinetics (PK) method.

[3] = Absorption of amorphous solid dispersion HP-55 (1:3), mouse pharmacokinetics (PK) method (Example 11); assay type: in vivo; details: whole blood, mice, IV, 1 mg/kg, solution in DMSO:10% HP-β-CD PBS (1:9)
Protocol: Measurement of the Absorption Ratio of the Amorphous Solid Dispersions of 5-fluoro-1-(4-fluoro-3-(4-(pyrimidin-2-yl)piperazine-1-carbonyl)benzyl)quinazoline-2,4(1H,3H)-dione:HP-55 (1:3) Using a Mouse Pharmacokinetics (PK) Method
as §1, with “to mice” for “to Wistar rats”, “a mouse” for “a rat”

Water solubility = assay type: physicochemical
[4] = Bioavailability after oral administration of the crystalline compound; details: mouse, in vivo, mice, simple mixture of crystalline compound with surfactants (Tween 80) and emulsifiers (methylcellulose)

O=C(c1cc(Cn2c(=O)[nH]c(=O)c3c(F)cccc32)ccc1F)N1CCN(c2ncccn2)CC1 [5-fluoro-1-(4-fluoro-3-(4-(pyrimidin-2-yl)piperazine-1-carbonyl)benzyl)quinazoline-2,4(1H,3H)-dione]
oral absorption rate [1]: 48% | AUC(0-inf) ([2]; female): 1290 ng·h/mL | AUC(0-t) ([2]; female): 1250 ng·h/mL | Cmax ([2]; female): 618 ng/mL | half-life ([2]; female): 304 min | AUC(0-inf) ([2]; male): 365 ng·h/mL | AUC(0-t) ([2]; male): 363 ng·h/mL | Cmax ([2]; male): 896 ng/mL | half-life ([2]; male): 51 min | AUC(0-inf) [3]: 997 ng·h/mL | AUC(0-t) [3]: 991 ng·h/mL | Cmax [3]: 1920 ng/mL | half-life [3]: 32.7 min | water solubility (in words) (Water solubility): very low | bioavailability [4]: < 5%
